Data: patent US20240050498A1, “SYNERGISTIC COMPOSITION OF PHAGES AND ITS FORMATION METHOD” (Proteon Pharmaceuticals S.A., priority 2020, published 2024)

Key:
selected APEC strains = experiment: Sensitivity of all selected APEC strains to drugs (disk diffusion) and to BAFACOL, summary; format: cell-based, Escherichia coli; conditions: all 12 selected strains
Procedure: BAFACOL preparation with the total titer of 1×10^8 PFU/ml was used in the tests.
The drug sensitivity of APEC strains was tested with a disk diffusion method, according to CLSI recommendations (Clinical Laboratory Standards Institute; 2008 document: Performance standards for antimicrobial disk and dilution susceptibility tests for bacteria isolated from animals; approved standard, 3rd Ed. CLSI document M31-A3. Clinical and Laboratory Standards Institute, Wayne, PA.). The disk diffusion method used disks soaked with 10 selected drugs (Table 9).
The other tested APEC strains were resistant to 6-8 test antimicrobial drugs.

E. coli strain 130PP2017 = experiment: Sensitivity of APEC strain to drugs (disk diffusion) and to BAFACOL; format: cell-based, Escherichia coli; conditions: CLSI, disk content as in column head
Procedure: The drug sensitivity of APEC strains was tested with a disk diffusion method, according to CLSI recommendations (Clinical Laboratory Standards Institute; 2008 document: Performance standards for antimicrobial disk and dilution susceptibility tests for bacteria isolated from animals; approved standard, 3rd Ed. CLSI document […]-A3. Clinical and Laboratory Standards Institute, Wayne, PA.). The disk diffusion method used disks soaked with 10 selected drugs (Table 9).

APEC strains = conditions: nearly 150 APEC strains, in vitro [Oliviera A. et al., 2009]; cited from earlier work

Row | SMILES | Drug sensitivity of all selected APEC strains (selected APEC strains) | further results
1 | CC1(C)S[C@@H]2[C@H](NC(=O)[C@H](N)c3ccccc3)C(=O)N2[C@H]1C(=O)O [Ampicillin] | resistant | 
2 | CN[C@@H]1[C@@H](O[C@H]2O[C@H](CO)[C@@H](N)[C@H](O)[C@H]2O)OC2C[C@@H](N)[C@@H](O[C@H]3[C@H](O)[C@@H](O)[C@H](N)C[C@@H]3N)OC2[C@@H]1O (some centres unmarked) [Apramycin] |  | Sensitivity to drug (R/I/S) (E. coli strain 130PP2017): sensitive
3 | CCn1cc(C(=O)O)c(=O)c2ccc(C)nc21 [Nalidixic acid] | resistant | 
4 | [H]/N=C(/N)N[C@H]1[C@H](O)[C@@H](O)[C@H](O[C@@H]2O[C@@H](C)[C@](O)(C=O)[C@H]2O[C@@H]2O[C@@H](CO)[C@H](O)[C@@H](O)[C@@H]2NC)[C@@H](N/C(N)=N\[H])[C@@H]1O [Streptomycin] | resistant | 
5 | CCN1CCN(c2cc3c(cc2F)c(=O)c(C(=O)O)cn3C2CC2)CC1 [enrofloxacin] |  | Share of studied APEC strains that were sensitive (APEC strains): more than 50%
